# Experimental data taken from ChEMBL document CHEMBL1201862, “PubChem BioAssay data set” (2004).
#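 Exposure lasted 48 hours, with cells grown in 96-well plates and compounds tested at five concentrations. At the GI50, growth is halved.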 Calls of active or inactive are those of the source. Cut-off read from the data, not from the text of the source: active = GI50 up to about 1.1 µM and inactive = higher.
# Experiments:
# Experiment in all cases: DTP human tumour cell line panel, 48 h
# OVCAR-5 = test system: OVCAR-5
# SK-OV-3 = test system: SK-OV-3
# UACC-257 = test system: UACC-257
# SK-MEL-5 = test system: SK-MEL-5
# IGROV-1 = test system: IGROV-1
# UACC-62 = test system: UACC-62
# A549 = test system: A549
# EKVX = test system: EKVX
# ACHN = test system: ACHN
# COLO 205 = test system: COLO 205
# KM12 = test system: KM12
# U-251 = test system: U-251
# SK-MEL-28 = test system: SK-MEL-28
# DMS-114 = test system: DMS-114
# OVCAR-3 = test system: OVCAR-3
# K562 = test system: K562
# NCI-H460 = test system: NCI-H460
# SF-268 = test system: SF-268
# SF-295 = test system: SF-295
# SN12C = test system: SN12C
# SNB-19 = test system: SNB-19
# NCI-H23 = test system: NCI-H23
# HOP-18 = test system: HOP-18
# M19-MEL = test system: M19-MEL
# MOLT-4 = test system: MOLT-4
# SK-MEL-2 = test system: SK-MEL-2
# HT-29 = test system: HT-29
# RXF 393 = test system: RXF 393
# HL-60 = test system: HL-60
# TK-10 = test system: TK-10
# SNB-75 = test system: SNB-75
# Malme-3M = test system: Malme-3M
# NCI-H226 = test system: NCI-H226
# CAKI-1 = test system: CAKI-1
# 786-0 = test system: 786-0
# CCRF-CEM = test system: CCRF-CEM
# SR = test system: SR
# LXFL 529 = test system: LXFL 529
# HOP-92 = test system: HOP-92
# RPMI-8226 = test system: RPMI-8226
# A498 = test system: A498
# SNB-78 = test system: SNB-78
# DMS-273 = test system: DMS-273
# HCT-116 = test system: HCT-116
# SW-620 = test system: SW-620
# NCI-H522 = test system: NCI-H522
# OVCAR-8 = test system: OVCAR-8
# UO-31 = test system: UO-31
# DLD-1 = test system: DLD-1
# HCC 2998 = test system: HCC 2998
# SF-539 = test system: SF-539
# HCT-15 = test system: HCT-15
# KM-20L2 = test system: KM-20L2
# LOX IMVI = test system: LOX IMVI
# OVCAR-4 = test system: OVCAR-4
# M14 = test system: M14
# HOP-62 = test system: HOP-62
smiles,measurement,setting,value
N#CCCC[Si]12OCCN(CCO1)CCO2,GI50,OVCAR-5,> 100 µM (inactive)
same,GI50,SK-OV-3,> 100 µM (inactive)
same,GI50,UACC-257,> 100 µM (inactive)
same,GI50,SK-MEL-5,> 100 µM (inactive)
same,GI50,IGROV-1,> 100 µM (inactive)
same,GI50,UACC-62,> 100 µM (inactive)
same,GI50,A549,> 100 µM (inactive)
same,GI50,EKVX,> 100 µM (inactive)
same,GI50,ACHN,> 100 µM (inactive)
same,GI50,COLO 205,> 100 µM (inactive)
same,GI50,KM12,> 100 µM (inactive)
same,GI50,U-251,> 100 µM (inactive)
same,GI50,SK-MEL-28,> 100 µM (inactive)
same,GI50,DMS-114,> 100 µM (inactive)
same,GI50,OVCAR-3,> 100 µM (inactive)
same,GI50,K562,> 100 µM (inactive)
same,GI50,NCI-H460,> 100 µM (inactive)
same,GI50,SF-268,> 100 µM (inactive)
same,GI50,SF-295,> 100 µM (inactive)
same,GI50,SN12C,> 100 µM (inactive)
same,GI50,SNB-19,> 100 µM (inactive)
same,GI50,NCI-H23,> 100 µM (inactive)
same,GI50,HOP-18,> 100 µM (inactive)
same,GI50,M19-MEL,> 100 µM (inactive)
same,GI50,MOLT-4,> 100 µM (inactive)
same,GI50,SK-MEL-2,> 100 µM (inactive)
same,GI50,HT-29,> 100 µM (inactive)
same,GI50,RXF 393,> 100 µM (inactive)
same,GI50,HL-60,> 100 µM (inactive)
same,GI50,TK-10,> 100 µM (inactive)
same,GI50,SNB-75,> 100 µM (inactive)
same,GI50,Malme-3M,> 100 µM (inactive)
same,GI50,NCI-H226,> 100 µM (inactive)
same,GI50,CAKI-1,> 100 µM (inactive)
same,GI50,786-0,> 100 µM (inactive)
same,GI50,CCRF-CEM,> 100 µM (inactive)
same,GI50,SR,> 100 µM (inactive)
same,GI50,LXFL 529,> 100 µM (inactive)
same,GI50,HOP-92,> 100 µM (inactive)
same,GI50,RPMI-8226,> 100 µM (inactive)
same,GI50,A498,> 100 µM (inactive)
same,GI50,SNB-78,> 100 µM (inactive)
same,GI50,DMS-273,> 100 µM (inactive)
same,GI50,HCT-116,> 100 µM (inactive)
same,GI50,SW-620,> 100 µM (inactive)
same,GI50,NCI-H522,> 100 µM (inactive)
same,GI50,OVCAR-8,> 100 µM (inactive)
same,GI50,UO-31,> 100 µM (inactive)
same,GI50,DLD-1,> 100 µM (inactive)
same,GI50,HCC 2998,> 100 µM (inactive)
same,GI50,SF-539,> 100 µM (inactive)
CCOc1ccccc1N1C(=O)C(=O)C(c2nc3ccccc3o2)/C(=N\N)C1=O (stereo not given),GI50,OVCAR-5,> 100 µM (inactive)
same,GI50,SK-OV-3,> 100 µM (inactive)
same,GI50,UACC-257,49.9 µM (inactive)
same,GI50,HCT-15,> 100 µM
same,GI50,SK-MEL-5,> 100 µM (inactive)
same,GI50,IGROV-1,> 100 µM (inactive)
same,GI50,UACC-62,> 100 µM (inactive)
same,GI50,A549,> 100 µM (inactive)
same,GI50,EKVX,> 100 µM (inactive)
same,GI50,ACHN,88.1 µM (inactive)
same,GI50,COLO 205,> 100 µM (inactive)
same,GI50,KM12,> 100 µM (inactive)
same,GI50,KM-20L2,> 100 µM (inactive)
same,GI50,U-251,> 100 µM (inactive)
same,GI50,SK-MEL-28,> 100 µM (inactive)
same,GI50,DMS-114,> 100 µM (inactive)
same,GI50,OVCAR-3,> 100 µM (inactive)
same,GI50,K562,> 100 µM (inactive)
same,GI50,SF-268,55 µM (inactive)
same,GI50,SF-295,> 100 µM (inactive)
same,GI50,SN12C,> 100 µM (inactive)
same,GI50,SNB-19,> 100 µM (inactive)
same,GI50,NCI-H23,> 100 µM (inactive)
same,GI50,M19-MEL,> 100 µM (inactive)
same,GI50,LOX IMVI,> 100 µM (inactive)
same,GI50,SK-MEL-2,> 100 µM (inactive)
same,GI50,HT-29,70.5 µM (inactive)
same,GI50,RXF 393,> 100 µM (inactive)
same,GI50,OVCAR-4,27.1 µM (inactive)
same,GI50,M14,> 100 µM (inactive)
same,GI50,HOP-62,> 100 µM (inactive)
same,GI50,HL-60,> 100 µM (inactive)
same,GI50,TK-10,56.5 µM (inactive)
same,GI50,SNB-75,27.7 µM (inactive)
same,GI50,Malme-3M,> 100 µM (inactive)
same,GI50,NCI-H226,> 100 µM (inactive)
same,GI50,CAKI-1,> 100 µM (inactive)
same,GI50,786-0,> 100 µM (inactive)
same,GI50,CCRF-CEM,> 100 µM (inactive)
same,GI50,LXFL 529,> 100 µM (inactive)
same,GI50,HOP-92,> 100 µM (inactive)
same,GI50,RPMI-8226,> 100 µM (inactive)
same,GI50,A498,> 100 µM (inactive)
same,GI50,SNB-78,> 100 µM (inactive)
same,GI50,DMS-273,> 100 µM (inactive)
same,GI50,HCT-116,79.8 µM (inactive)
same,GI50,SW-620,> 100 µM (inactive)
same,GI50,NCI-H522,> 100 µM (inactive)
same,GI50,OVCAR-8,> 100 µM (inactive)
same,GI50,UO-31,31.2 µM (inactive)
same,GI50,DLD-1,> 100 µM (inactive)
same,GI50,HCC 2998,> 100 µM (inactive)
same,GI50,SF-539,> 100 µM (inactive)
CCN(CC)CCCCC1CCN(CC(=O)N2CC(C)C(=O)Nc3ccccc32)CC1 (stereo not given),GI50,OVCAR-5,> 100 µM (inactive)
same,GI50,SK-OV-3,> 100 µM (inactive)
same,GI50,UACC-257,> 100 µM (inactive)
same,GI50,HCT-15,> 100 µM
same,GI50,SK-MEL-5,> 100 µM (inactive)
same,GI50,IGROV-1,> 100 µM (inactive)
same,GI50,UACC-62,> 100 µM (inactive)
same,GI50,A549,> 100 µM (inactive)
same,GI50,ACHN,> 100 µM (inactive)
same,GI50,COLO 205,> 100 µM (inactive)
same,GI50,KM-20L2,> 100 µM (inactive)
same,GI50,U-251,> 100 µM (inactive)
same,GI50,SK-MEL-28,> 100 µM (inactive)
same,GI50,DMS-114,> 100 µM (inactive)
same,GI50,OVCAR-3,> 100 µM (inactive)
same,GI50,K562,> 100 µM (inactive)
same,GI50,NCI-H460,> 100 µM (inactive)
same,GI50,SF-268,> 100 µM (inactive)
same,GI50,SF-295,> 100 µM (inactive)
same,GI50,SN12C,> 100 µM (inactive)
same,GI50,SNB-19,> 100 µM (inactive)
same,GI50,NCI-H23,> 100 µM (inactive)
same,GI50,HOP-18,> 100 µM (inactive)
same,GI50,M19-MEL,> 100 µM (inactive)
same,GI50,LOX IMVI,> 100 µM (inactive)
same,GI50,MOLT-4,> 100 µM (inactive)
same,GI50,HT-29,> 100 µM (inactive)
same,GI50,OVCAR-4,> 100 µM (inactive)
same,GI50,M14,> 100 µM (inactive)
same,GI50,HOP-62,> 100 µM (inactive)
same,GI50,HL-60,> 100 µM (inactive)
same,GI50,Malme-3M,> 100 µM (inactive)
same,GI50,NCI-H226,> 100 µM (inactive)
same,GI50,CAKI-1,> 100 µM (inactive)
same,GI50,786-0,> 100 µM (inactive)
same,GI50,CCRF-CEM,> 100 µM (inactive)
same,GI50,SR,> 100 µM (inactive)
same,GI50,LXFL 529,> 100 µM (inactive)
same,GI50,HOP-92,> 100 µM (inactive)
same,GI50,RPMI-8226,> 100 µM (inactive)
same,GI50,A498,> 100 µM (inactive)
same,GI50,DMS-273,> 100 µM (inactive)
same,GI50,HCT-116,> 100 µM (inactive)
same,GI50,SW-620,> 100 µM (inactive)
same,GI50,UO-31,> 100 µM (inactive)
same,GI50,DLD-1,> 100 µM (inactive)
same,GI50,HCC 2998,> 100 µM (inactive)
CC(=O)Nc1ccc2c(c1)C(=O)c1ccccc1-2,GI50,SK-OV-3,> 100 µM (inactive)
same,GI50,UACC-257,> 100 µM (inactive)
same,GI50,HCT-15,> 100 µM
same,GI50,IGROV-1,> 100 µM (inactive)
same,GI50,UACC-62,> 100 µM (inactive)
same,GI50,A549,> 100 µM (inactive)
same,GI50,EKVX,> 100 µM (inactive)
same,GI50,ACHN,> 100 µM (inactive)
same,GI50,COLO 205,> 100 µM (inactive)
same,GI50,KM12,> 100 µM (inactive)
same,GI50,KM-20L2,> 100 µM (inactive)
same,GI50,U-251,> 100 µM (inactive)
same,GI50,SK-MEL-28,> 100 µM (inactive)
same,GI50,DMS-114,> 100 µM (inactive)
same,GI50,OVCAR-3,> 100 µM (inactive)
same,GI50,K562,> 100 µM (inactive)
same,GI50,NCI-H460,> 100 µM (inactive)
same,GI50,SF-268,> 100 µM (inactive)
same,GI50,SF-295,> 100 µM (inactive)
same,GI50,SN12C,> 100 µM (inactive)
same,GI50,SNB-19,> 100 µM (inactive)
same,GI50,NCI-H23,> 100 µM (inactive)
same,GI50,M19-MEL,> 100 µM (inactive)
same,GI50,LOX IMVI,> 100 µM (inactive)
same,GI50,MOLT-4,> 100 µM (inactive)
same,GI50,HT-29,> 100 µM (inactive)
same,GI50,RXF 393,> 100 µM (inactive)
same,GI50,M14,> 100 µM (inactive)
same,GI50,HOP-62,> 100 µM (inactive)
same,GI50,HL-60,> 100 µM (inactive)
same,GI50,TK-10,> 100 µM (inactive)
same,GI50,SNB-75,> 100 µM (inactive)
same,GI50,Malme-3M,> 100 µM (inactive)
same,GI50,NCI-H226,> 100 µM (inactive)
same,GI50,786-0,> 100 µM (inactive)
same,GI50,CCRF-CEM,> 100 µM (inactive)
same,GI50,SR,> 100 µM (inactive)
same,GI50,LXFL 529,> 100 µM (inactive)
same,GI50,RPMI-8226,> 100 µM (inactive)
same,GI50,SNB-78,> 100 µM (inactive)
same,GI50,DMS-273,> 100 µM (inactive)
same,GI50,HCT-116,> 100 µM (inactive)
same,GI50,SW-620,> 100 µM (inactive)
same,GI50,NCI-H522,> 100 µM (inactive)
same,GI50,OVCAR-8,> 100 µM (inactive)
same,GI50,UO-31,> 100 µM (inactive)
same,GI50,DLD-1,> 100 µM (inactive)
same,GI50,HCC 2998,> 100 µM (inactive)
same,GI50,SF-539,> 100 µM (inactive)
